Like-named read-outs stand apart in the source and are kept apart here.
Test: Solubility of the ligand in Shellsol D40 at 23° C.
Format: physicochemical
Description: This condensation product was added to Shellsole® D40 at a temperature of 23° C. The solubility of the ligand was less than 10 g/l.
Comparative Example A was repeated using 2-hydroxy 5-methyl benzaldehyde instead of salicyl aldehyde. Again, the resulting ligand was added to Shellsol® D40 at a temperature of 23° C. The solubilty of the ligand was less than 10 g/l.
(§1) Comparative Example A was repeated using 2-hydroxy 3,5-di tert. butyl benzaldehyde instead of salicyl aldehyde. Obtained was a ligand according to formula I having two tert. butyl substitutions on the two aromatic groups A1 and A2. The solubility in Shellsol® D40 at a temperature of 23° C. was higher than 20 g/l.
as §1, with “repeated again, now” for “repeated”, “5-dodecyl” for “3,5-di tert. butyl”, “a dodecyl substitution” for “two tert. butyl substitutions”, “100” for “20”

[1] = Shellsol D40 (aromate-free organic solvent), 23° C.

Cc1ccc(O)c(C=NC2CCCCC2N=Cc2cc(C)ccc2O)c1 (stereo not shown) [B]
solubility of the ligand in Shellsol D40 [1]: less than 10 g/l

Oc1ccccc1C=NC1CCCCC1N=Cc1ccccc1O (stereo not shown) [Comparative Example A, N,N′-bis(salicylidene) cyclohexylene diamine]
solubility of the ligand in Shellsol D40: less than 10 g/l

CC(C)(C)c1cc(C=NC2CCCCC2N=Cc2cc(C(C)(C)C)cc(C(C)(C)C)c2O)c(O)c(C(C)(C)C)c1 (stereo not shown) [Example 1]
solubility of the ligand in Shellsol D40 [1]: higher than 20 g/l

CCCCCCCCCCCCc1ccc(O)c(C=NC2CCCCC2N=Cc2cc(CCCCCCCCCCCC)ccc2O)c1 (stereo not shown) [Example 2]
solubility of the ligand in Shellsol D40 [1]: higher than 100 g/l
